Reference: patent US11649242B2, “Pyrrolopyrrole compositions as pyruvate kinase (PKR) activators” (FORMA Therapeutics, Inc., priority 2017, dated 2023)

Assays:
Type in all cases: biochemical
PKR(wt) = PKR(wt) (Homo sapiens, UniProt P30613); assay: Luminescence Assay Protocol (Kinase Glo Plus), PKR(Wt/without FBP); conditions: without FBP; for activation at 1.54 µM: read-out: I - AC50 LUM KGP woFBP % Fold @ 1.54 μM mean; for AC50: gmean, read-out: G - AC50 LUM KGP woFBP AC50 μM gmean; for H - AC50 LUM KGP woFBP MAX % FOLD mean / Emax: highest % fold increase at any concentration; for Emax: read-out: H - AC50 LUM KGP woFBP MAX % FOLD mean
Method: (§1) Example 47: PKR(Wt/without FBP), PKR(G332S/with FBP), PKR(R510Q/without FBP)
(§2) The phosphorylation of Adenosine-5′-diphosphate (ADP) by various mutants of PKR was determined by the Kinase Glo Plus Assay (Promega) in the presence or absence of FBP [D-Fructose-1,6-diphosphate; BOC Sciences, CAS: 81028-91-3] as follows. Unless otherwise indicated, all reagents were purchased from Sigma-Aldrich. All reagents were prepared in buffer containing 50 mM Tris-HCl, 100 mM KCl, 5 mM MgCl2, and 0.01% Triton X100, 0.03% BSA, and 1 mM DTT. Enzyme and PEP [Phospho(enol) pyruvic acid] were added at 2× to all wells of an assay-ready plate containing serial dilutions of test compounds or DMSO vehicle. Final enzyme concentrations for PKR(wt), PKR(R510Q), and PKR(G332S) were 0.8 nM, 0.8 nM, and 10 nM respectively. Final PEP concentration was 100 μM. The Enzyme/PEP mixture was incubated with compounds for 30 minutes at RT before the assay was initiated with the addition of 2×ADP [Adenosine-5′-diphosphate] and KinaseGloPlus. Final concentration of ADP was 100 μM. […] For assays containing FBP, that reagent is added at 30 μM upon reaction initiation. Reactions were allowed to progress for 45 minutes at RT until luminescence was recorded by the BMG PHERAstar FS Multilabel Reader. All compounds were tested in triplicate at concentrations ranging from 42.5 μM to 2.2 nM in 0.83% DMSO.
(§3) Luminescence values were converted to % Fold increase by normalizing to the average of the DMSO control and multiplying by 100. Max, min, slope and AC50 were determined by the standard four parameter fit algorithm of ActivityBase XE Runner. Compounds were evaluated with three parameters—AC50, MAX % Fold, and % Fold@1.54 μM (FIG. 1). The AC50 value for a compound is the concentration […] corresponding to the midway between the maximum and minimum values of the four parameter logistic curve fit (i.e., at which the % fold increase along the four parameter logistic curve fit is halfway between MAX % Fold and MIN % Fold (% Fold Midpoint)), MAX % Fold is the highest fold increase observed at any concentration of compound, and % Fold@1.54 μM is the fold increase at a compound concentration of 1.54 μM. The parameter % Fold@1.54 μM was selected to capture elements of both the AC50 and MAX % Fold and to provide a ranking based on both potency and effect. The compound concentration of 1.54 μM was chosen as one that can optimally differentiate the set of compounds based on the range of activities observed.
(§4) As set forth in Tables 6 and 7 below, AC50 values (columns A, D, G) are defined as follows: ≤0.1 μM (+++); >0.1 μM and ≤1.0 μM (++); >1.0 μM and ≤40 μM (+); >40 μM (0). Max % FOLD values (columns B, E, H) are defined as follows: ≤75% (+); >75% and ≤250% (++); >250% and ≤500% (+++). % Fold@1.54 μM values (columns C, F, I) are defined as follows: ≤75% (+); >75% and ≤250% (++); >250% and ≤500% (+++).

PKR(R510Q) = PKR(R510Q) (Homo sapiens, UniProt P30613, R510Q); assay: Luminescence Assay Protocol (Kinase Glo Plus), PKR(R510Q/without FBP); conditions: PKRR510Q, without FBP; for activation at 1.54 µM: read-out: F - AC50 LUM KGP woFBP % Fold @ 1.54 μM mean; for AC50: gmean, read-out: D - AC50 LUM KGP woFBP AC50 μM gmean; for E - AC50 LUM KGP woFBP MAX % FOLD mean / Emax: highest % fold increase at any concentration; for Emax: read-out: E - AC50 LUM KGP woFBP MAX % FOLD mean
Method: as §1, §2, §3, §4

PKR(G332S) = PKR(G332S) (Homo sapiens, UniProt P30613, G332S); assay: Luminescence Assay Protocol (Kinase Glo Plus), PKR(G332S/with FBP); conditions: PKRG332S, with FBP; for activation at 1.54 µM: read-out: C - AC50 LUM KGP FBP % Fold @ 1.54 μM mean; for AC50: gmean, read-out: A - AC50 LUM KGP FBP AC50 μM gmean; for Emax: read-out: B - AC50 LUM KGP FBP MAX % FOLD mean
Method: as §1, §2, §3, §4

[1] = highest % fold increase at any concentration

PKR(R510Q), sequence (P30613 whole entry R510Q): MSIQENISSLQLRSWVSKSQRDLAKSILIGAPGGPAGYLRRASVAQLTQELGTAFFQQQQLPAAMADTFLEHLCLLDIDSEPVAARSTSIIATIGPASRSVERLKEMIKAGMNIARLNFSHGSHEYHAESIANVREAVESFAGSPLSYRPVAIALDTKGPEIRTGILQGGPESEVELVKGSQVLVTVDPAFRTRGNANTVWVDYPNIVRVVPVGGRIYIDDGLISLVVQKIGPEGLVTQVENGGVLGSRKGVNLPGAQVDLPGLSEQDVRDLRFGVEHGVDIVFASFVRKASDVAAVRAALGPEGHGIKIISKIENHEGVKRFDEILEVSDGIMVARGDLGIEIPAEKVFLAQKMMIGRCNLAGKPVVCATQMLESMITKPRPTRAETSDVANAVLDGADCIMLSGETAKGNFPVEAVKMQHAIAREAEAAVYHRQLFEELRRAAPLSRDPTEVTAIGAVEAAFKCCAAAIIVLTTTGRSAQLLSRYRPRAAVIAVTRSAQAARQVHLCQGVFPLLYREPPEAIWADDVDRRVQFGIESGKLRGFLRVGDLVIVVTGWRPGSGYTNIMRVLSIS
PKR(G332S), sequence (P30613 whole entry G332S): as the sequence (P30613 whole entry R510Q) above, with G332S, Q510R counted along it
PKR(wt), sequence (P30613 whole entry): as the sequence (P30613 whole entry R510Q) above, with Q510R counted along it

| activation at 1.54 µM (PKR(wt); compound 1.54 μM) [%] | AC50 (PKR(wt)) [µM] | H - AC50 LUM KGP woFBP MAX % FOLD mean (PKR(wt)) | activation at 1.54 µM (PKR(R510Q); compound 1.54 μM) [%] | AC50 (PKR(R510Q)) [µM] | E - AC50 LUM KGP woFBP MAX % FOLD mean (PKR(R510Q)) | activation at 1.54 µM (PKR(G332S); compound 1.54 μM) [%] | AC50 (PKR(G332S)) [µM] | Emax (PKR(G332S); [1]) [%] | I - AC50 LUM KGP woFBP % Fold @ 1.54 μM mean (PKR(wt); compound 1.54 μM) | F - AC50 LUM KGP woFBP % Fold @ 1.54 μM mean (PKR(R510Q); compound 1.54 μM) | C - AC50 LUM KGP FBP % Fold @ 1.54 μM mean (PKR(G332S); compound 1.54 μM) | B - AC50 LUM KGP FBP MAX % FOLD mean (PKR(G332S); [1]) | Emax (PKR(wt)) [%] | Emax (PKR(R510Q)) [%] | Compound |
| --- | --- | --- | --- | --- | --- | --- | --- | --- | --- | --- | --- | --- | --- | --- | --- |
| 75 to 250 | 1 to 40 | ++ (>75% and ≤250% (++)) | 75 to 250 | > 40 | ++ (>75% and ≤250% (++)) | 75 to 250 | 1 to 40 | 75 to 250 | – | – | – | – | – | – | O=C(C1CCCOC1)N1CC2=C(C1)CN(S(=O)(=O)c1ccccn1)C2 (single isomer, unassigned) [Example 44, (R or S)-(5-(pyridin-2-ylsulfonyl)-3,4,5,6-tetrahydropyrrolo[3,4-c]pyrrol-2(1H)-yl)(tetrahydro-2H-pyran-3-yl)methanone] |
| – | 0.1 to 1 | +++ (>250% and ≤500% (+++)) | – | 1 to 40 | +++ (>250% and ≤500% (+++)) | – | 0.1 to 1 | – | ++ (>75% and ≤250% (++)) | ++ (>75% and ≤250% (++)) | ++ (>75% and ≤250% (++)) | ++ (>75% and ≤250% (++)) | – | – | O=C(C1CCCOC1)N1CC2=C(C1)CN(S(=O)(=O)c1ccccn1)C2 (single isomer, unassigned) [Example 45, (S or R)-(5-(pyridin-2-ylsulfonyl)-3,4,5,6-tetrahydropyrrolo[3,4-c]pyrrol-2(1H)-yl)(tetrahydro-2H-pyran-3-yl)methanone] |
| 75 to 250 | 0.1 to 1 | – | – | 0.1 to 1 | – | – | ≤ 0.1 | – | – | – | – | – | 75 to 250 | – | CC(C)(CO)C(=O)N1CC2=C(C1)CN(S(=O)(=O)c1ccc(OC(F)F)cc1)C2 [Example 7, 1-(5-((4-(difluoromethoxy)phenyl)sulfonyl)-3,4,5,6-tetrahydropyrrolo[3,4-c]pyrrol-2(1H)-yl)-3-hydroxy-2,2-dimethylpropan-1-one] |
| 250 to 500 | 0.1 to 1 | – | 75 to 250 | 1 to 40 | – | 75 to 250 | 0.1 to 1 | 75 to 250 | – | – | – | – | 250 to 500 | 250 to 500 | O=C([C@@H]1CCOC1)N1CC2=C(C1)CN(S(=O)(=O)c1ccc(OC(F)F)cc1)C2 [Example 14, (R)-(5-((4-(difluoromethoxy)phenyl)sulfonyl)-3,4,5,6-tetrahydropyrrolo[3,4-c]pyrrol-2(1H)-yl)(tetrahydrofuran-3-yl)methanone] |
| 75 to 250 | 0.1 to 1 | – | 75 to 250 | 1 to 40 | – | 75 to 250 | > 40 | 75 to 250 | – | – | – | – | 75 to 250 | 250 to 500 | O=C(C1CCCOC1)N1CC2=C(C1)CN(S(=O)(=O)c1ccc3ncsc3c1)C2 (centres unmarked) [Example 15, (5-(benzo[d]thiazol-6-ylsulfonyl)-3,4,5,6-tetrahydropyrrolo[3,4-c]pyrrol-2(1H)-yl)(tetrahydro-2H-pyran-3-yl)methanone] |
| 75 to 250 | 0.1 to 1 | – | 75 to 250 | 1 to 40 | – | 75 to 250 | 0.1 to 1 | 75 to 250 | – | – | – | – | 250 to 500 | 250 to 500 | O=C([C@H]1CCOC1)N1CC2=C(C1)CN(S(=O)(=O)c1ccc(OC(F)F)cc1)C2 [Example 16, (S)-(5-((4-(difluoromethoxy)phenyl)sulfonyl)-3,4,5,6-tetrahydropyrrolo[3,4-c]pyrrol-2(1H)-yl)(tetrahydrofuran-3-yl)methanone] |
| 75 to 250 | 0.1 to 1 | – | 75 to 250 | 0.1 to 1 | – | 75 to 250 | > 40 | 75 to 250 | – | – | – | – | 75 to 250 | 250 to 500 | CC(C)(CO)C(=O)N1CC2=C(C1)CN(S(=O)(=O)c1ccc3ncsc3c1)C2 [Example 19, 1-(5-(benzo[d]thiazol-6-ylsulfonyl)-3,4,5,6-tetrahydropyrrolo[3,4-c]pyrrol-2(1H)-yl)-3-hydroxy-2,2-dimethylpropan-1-one] |
| 75 to 250 | 0.1 to 1 | – | 75 to 250 | 1 to 40 | – | 75 to 250 | 0.1 to 1 | 75 to 250 | – | – | – | – | 250 to 500 | 250 to 500 | O=C([C@@H]1CCOC1)N1CC2=C(C1)CN(S(=O)(=O)c1ccc3ncsc3c1)C2 [Example 20, (R)-(5-(benzo[d]thiazol-6-ylsulfonyl)-3,4,5,6-tetrahydropyrrolo[3,4-c]pyrrol-2(1H)-yl)(tetrahydrofuran-3-yl)methanone] |
| 75 to 250 | 0.1 to 1 | – | 75 to 250 | 1 to 40 | – | 75 to 250 | ≤ 0.1 | 75 to 250 | – | – | – | – | 250 to 500 | 250 to 500 | CC(C)(O)[C@@H](C(=O)N1CC2=C(C1)CN(S(=O)(=O)c1ccc(OC(F)F)cc1)C2)c1ccccc1 [Example 28, (S)-1-(5-((4-(difluoromethoxy)phenyl)sulfonyl)-3,4,5,6-tetrahydropyrrolo[3,4-c]pyrrol-2(1H)-yl)-3-hydroxy-3-methyl-2-phenylbutan-1-one] |
| 250 to 500 | ≤ 0.1 | – | 250 to 500 | ≤ 0.1 | – | 75 to 250 | ≤ 0.1 | 75 to 250 | – | – | – | – | 250 to 500 | 250 to 500 | O=C([C@H](CO)c1ccccc1)N1CC2=C(C1)CN(S(=O)(=O)c1ccc3ncsc3c1)C2 [Example 29, (S)-1-(5-(benzo[d]thiazol-6-ylsulfonyl)-3,4,5,6-tetrahydropyrrolo[3,4-c]pyrrol-2(1H)-yl)-3-hydroxy-2-phenylpropan-1-one] |
| 250 to 500 | 0.1 to 1 | – | 250 to 500 | 0.1 to 1 | – | 75 to 250 | 0.1 to 1 | 75 to 250 | – | – | – | – | 250 to 500 | 250 to 500 | O=C([C@@H](CO)c1ccccc1)N1CC2=C(C1)CN(S(=O)(=O)c1ccc3ncsc3c1)C2 [Example 30, (R)-1-(5-(benzo[d]thiazol-6-ylsulfonyl)-3,4,5,6-tetrahydropyrrolo[3,4-c]pyrrol-2(1H)-yl)-3-hydroxy-2-phenylpropan-1-one] |
| 250 to 500 | ≤ 0.1 | – | 250 to 500 | ≤ 0.1 | – | 75 to 250 | ≤ 0.1 | 75 to 250 | – | – | – | – | 250 to 500 | 250 to 500 | O=C([C@H](CO)c1ccccc1)N1CC2=C(C1)CN(S(=O)(=O)c1ccc(OC(F)F)cc1)C2 [Example 31, (S)-1-(5-((4-(difluoromethoxy)phenyl)sulfonyl)-3,4,5,6-tetrahydropyrrolo[3,4-c]pyrrol-2(1H)-yl)-3-hydroxy-2-phenylpropan-1-one] |
